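Following 48 hours of exposure in 96-well plates, responses at five concentrations were used to interpolate endpoints linearly. Definition used: TGI = concentration required for complete inhibition of growth.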
Tests used:
Assay in all cases: inhibition of tumour cell growth, NCI panel, 48 h
786-0 renal = tested on: 786-0 renal
A498 renal = tested on: A498 renal
A549 NSCLC = tested on: A549 NSCLC
ACHN renal = tested on: ACHN renal
BT-549 breast = tested on: BT-549 breast
CAKI-1 renal = tested on: CAKI-1 renal
CCRF-CEM leukemia = tested on: CCRF-CEM leukemia
COLO 205 colon = tested on: COLO 205 colon
DU-145 prostate = tested on: DU-145 prostate
EKVX NSCLC = tested on: EKVX NSCLC
HCC-2998 colon = tested on: HCC-2998 colon
HCT-116 colon = tested on: HCT-116 colon
HCT-15 colon = tested on: HCT-15 colon
HL-60(TB) leukemia = tested on: HL-60(TB) leukemia
HOP-62 NSCLC = tested on: HOP-62 NSCLC
HOP-92 NSCLC = tested on: HOP-92 NSCLC
HS 578T breast = tested on: HS 578T breast
HT29 colon = tested on: HT29 colon
IGROV1 ovarian = tested on: IGROV1 ovarian
K-562 leukemia = tested on: K-562 leukemia
KM12 colon = tested on: KM12 colon
LOX IMVI melanoma = tested on: LOX IMVI melanoma
M14 melanoma = tested on: M14 melanoma
MALME-3M melanoma = tested on: MALME-3M melanoma
MCF7 breast = tested on: MCF7 breast
MDA-MB-231 breast = tested on: MDA-MB-231 breast
MDA-MB-435 = tested on: MDA-MB-435
MDA-N = tested on: MDA-N
NCI-H226 lung = tested on: NCI-H226 lung
NCI-H23 lung = tested on: NCI-H23 lung
NCI-H460 lung = tested on: NCI-H460 lung
NCI-H522 lung = tested on: NCI-H522 lung
NCI/ADR-RES ovarian = tested on: NCI/ADR-RES ovarian
OVCAR-3 ovarian = tested on: OVCAR-3 ovarian
OVCAR-4 ovarian = tested on: OVCAR-4 ovarian
OVCAR-5 ovarian = tested on: OVCAR-5 ovarian
OVCAR-8 ovarian = tested on: OVCAR-8 ovarian
PC-3 prostate = tested on: PC-3 prostate
RPMI-8226 leukemia = tested on: RPMI-8226 leukemia
RXF 393 renal = tested on: RXF 393 renal
SF-268 CNS = tested on: SF-268 CNS
SF-295 CNS = tested on: SF-295 CNS
SK-MEL-2 melanoma = tested on: SK-MEL-2 melanoma
SK-MEL-28 melanoma = tested on: SK-MEL-28 melanoma
SK-MEL-5 melanoma = tested on: SK-MEL-5 melanoma
SK-OV-3 ovarian = tested on: SK-OV-3 ovarian
SN12C renal = tested on: SN12C renal
SNB-19 CNS = tested on: SNB-19 CNS
SR leukemia = tested on: SR leukemia
SW-620 colon = tested on: SW-620 colon
T-47D breast = tested on: T-47D breast
TK-10 renal = tested on: TK-10 renal
U251 CNS = tested on: U251 CNS
UACC-257 melanoma = tested on: UACC-257 melanoma
UACC-62 melanoma = tested on: UACC-62 melanoma
UO-31 renal = tested on: UO-31 renal
MOLT-4 leukemia = tested on: MOLT-4 leukemia
SF-539 CNS = tested on: SF-539 CNS
SNB-75 CNS = tested on: SNB-75 CNS

Measured: TGI

c1ccc(CCN2CCOCC2)nc1
not listed: MOLT-4 leukemia | SF-539 CNS | SNB-75 CNS
> 100 µM: all other assays above

CCC(c1ccc2cc(O)ccc2c1)C(C)(C)C(=O)O (stereo not drawn)
not listed: CCRF-CEM leukemia | HL-60(TB) leukemia
> 100 µM: all other assays above
